Publication PMC12656546, “Enterohepatic Recirculation-Mediated Reabsorption of Aristolochic Acid I: Revealed by Toxicokinetics and Metabolite Identification in Rats” (Toxics, 2025)
Where two headings read alike, the source gives them in different places.

Key:
[1] = Stability of AAI in rat plasma samples (QC samples); type: in vitro ADME; conditions: n = 3
Experimental: A full validation of the bioanalytical method for the quantitative analysis of AAI in rat plasma was performed in inherence to the ICH M10 guideline. Selectivity, accuracy and precision, matrix effects, calibration curve and range, dilution integrity and stability were fully validated. The analyzed QCs included a lower limit of quantitation (LLOQ) sample, low QC (LQC), medium QC (MQC) and high QC (HQC). QCs of four concentration levels (LLOQ: 1 ng/mL; LQC: 3 ng/mL; MQC: 400 ng/mL; HQC: 800 ng/mL) were prepared by spiking AAI with blank plasma collected from 6 rats.
Stability evaluation was carried out by analyzing LQCs and HQCs after storage under different conditions. Freeze–thaw stability was assessed after 3 cycles of freezing and thawing. Short-term stability was tested by keeping the LQCs and HQCs on the bench top at room temperature for the same duration as the study samples. Stability of the analyte in processed samples was tested by placing the processed samples in an autosampler for 16 h. Long-term stability was assessed by storing LQCs and HQCs at −20 °C for 15 days. The mean concentration at each QC level should be within ±15% of the nominal concentration.

[2] = tested on: Caco-2 monolayers; conditions: cited from earlier work
[3] = nine months after a single administration of AAI, cited from earlier work
[4] = Qualitative analysis of AAI and metabolites in bile of bile duct-cannulated rats; type: in vivo, F344 rats; conditions: 30 mg/kg AAI oral, bile collected 0–3 h, 3–6 h, 6–9 h, 9–12 h, qualitative UHPLC-Q-Exactive
Experimental: Ten 6-week-old F344 rats were divided into a control group (n = 2) and a treatment group (n = 8), with equal numbers of males and females in each group. During the experiment, rats were fasted and had access to water ad libitum. Rats in the control group were administered with 0.5% CMC-Na suspension via gastric gavage. For the treatment group, rats were administered with 30 mg/kg of AAI by the same route. Rats underwent bile duct cannulation for bile sample collection. Bile samples were collected at consecutive intervals of 0–3 h, 3–6 h, 6–9 h and 9–12 h after administration.
For each bile sample, a 200 μL aliquot of bile was mixed with an equal volume of a methanol/acetonitrile (1:1, v/v) solution. After vortexing for 2 min, the mixture was centrifuged at 13,200 rpm for 10 min. The precipitate was discarded, and the supernatant was dried under nitrogen gas. The dried residue was reconstituted in 80 μL of methanol, vortexed for 2 min, and centrifuged at 13,200 rpm for 15 min. The resulting supernatant was used for further analysis.
Ultra-high-performance liquid chromatography (UHPLC) coupled with a Q-Exactive orbitrap mass spectrometer (Thermo Fisher Scientific, San Jose, CA, USA) was used to analyzed the metabolites of AAI in rat bile. An ACQUITY UPLC BEH C18 column (2.1 mm × 50 mm, 1.7 μm, Waters, Milford, MA, USA) was employed for chromatographic separation. The mobile phase consisted of water containing 5 mmol/L ammonium formate/0.1% formic acid (A) and acetonitrile (B).
Metabolites in bile samples were analyzed using electrospray ionization (ESI) in both positive and negative ion modes. The spray voltage was set at 3500 V for positive mode and 3000 V for negative mode. The ion transfer tube temperature was maintained at 350 °C with a vaporizer temperature of 300 °C. The sheath gas and auxiliary gas flow rates were 35 Arb and 10 Arb. Full-scan MS data were acquired at a resolution of 35,000 within the mass range of m/z 100–1200. For MS/MS analysis, data-dependent acquisition (DDA) was performed at a resolution of 17,500 using high-energy collision dissociation (HCD). Post-acquisition data was imported into Compound Discoverer 2.1 software to identify AAI metabolites. Blank matrices were processed alongside samples to exclude the background interferences.

[5] = Freeze–thaw stability (3 cycles), rat plasma, nominal conc. 3 ng/mL
[6] = Freeze–thaw stability (3 cycles), rat plasma, nominal conc. 800 ng/mL
[7] = Long-term stability (−20 °C, 15 days), rat plasma, nominal conc. 3 ng/mL
[8] = Long-term stability (−20 °C, 15 days), rat plasma, nominal conc. 800 ng/mL
[9] = Post-processing stability (processed samples in autosampler 16 h), nominal conc. 3 ng/mL
[10] = Post-processing stability (processed samples in autosampler 16 h), nominal conc. 800 ng/mL
[11] = Short-term stability (bench top, room temperature), rat plasma, nominal conc. 3 ng/mL
[12] = Short-term stability (bench top, room temperature), rat plasma, nominal conc. 800 ng/mL

COc1cccc2c1cc([N+](=O)[O-])c1c(C(=O)O)cc3c(c12)OCO3 [AAI, Aristolochic acid I]
Accuracy (%Dev) [1, 5]: 4.10 %Dev
Mean Calculated Conc. [1, 5]: 3.12 ng/mL
Accuracy (%Dev) [1, 6]: 1.30 %Dev
Mean Calculated Conc. [1, 6]: 810.42 ng/mL
Accuracy (%Dev) [1, 7]: 6.54 %Dev
Mean Calculated Conc. [1, 7]: 3.20 ng/mL
Accuracy (%Dev) [1, 8]: 4.71 %Dev
Mean Calculated Conc. [1, 8]: 837.66 ng/mL
Accuracy (%Dev) [1, 9]: −10.53 %Dev
Mean Calculated Conc. [1, 9]: 2.68 ng/mL
Accuracy (%Dev) [1, 10]: −11.83 %Dev
Mean Calculated Conc. [1, 10]: 705.33 ng/mL
Accuracy (%Dev) [1, 11]: 3.46 %Dev
Mean Calculated Conc. [1, 11]: 3.10 ng/mL
Accuracy (%Dev) [1, 12]: −2.99 %Dev
Mean Calculated Conc. [1, 12]: 776.07 ng/mL
passive diffusion ability across Caco-2 monolayers [2]: moderate passive diffusion ability
mice developing liver cancer ([3]; female mice): 41.67%
mice developing liver cancer ([3]; male mice): 78.57%
detection in bile (biliary excretion) [4]: detected in bile collected during 0–3 h and 3–6 h intervals post-administration
